Results on six compounds are retold here after patent publication US8513182B2, “Natural polypeptides for oral health care” (priority 2007, dated 2013).

Like-named read-outs stand apart in the source and are kept apart here. Ends that are not written are not given here.

The subject of one assay is bacterial plaque. To be noted: in vitro and in vivo; cited from earlier work.
In assay [1] the test system is Streptococcus mutans. In words: killing of Streptococcus mutans by synthetic lactoferrin peptide. It counts as cell-based.
Assay [2] concerns Streptococcus mutans. In words: disk diffusion assay on confluent S. mutans culture. It is filed as cell-based. To be noted: for antibacterial activity (zone of inhibition) against S. mutans: FIG. 4, lactoferrin, statherin and fusion peptides on disk. The source says: In all panels the circle is a filter paper disk impregnated with different agents (PBS=phosphate buffered saline which is a control); LF “R”=the 11 mer of lactoferrin with arginine (R) in amino acid position 29; LF “K” the 11 mer of lactoferrin with lysine (K) in amino acid position 29. The disk containing a standard concentration of one of the agents is placed over a confluent culture of Streptococcus mutans.
In all panels the circle is a disk impregnated with different agents. The disk is placed over a confluent culture of Streptococcus mutans. […] Panel top left: Lactoferrin (timer) where the lysine is present. […] Middle and top right panel are the two statherin peptides, a 6 mer and a 15 mer. […] Panel bottom left: lactoferrin 11 mer noted as LF fused to the Statherin 6 mer. […] Panel bottom right: Lactoferrin 11 mer noted as LF fused to Statherin 15 mer. […] The two panels on the bottom show the level of interference when the LF is added to the two Statherins. The activity of the LF when the smaller Statherin peptide is fused to it is greater as compared to when the larger peptide is fused to the LF.
The first was a disk diffusion screening assay we developed in our laboratory. In that assay we grew an overnight culture of S. mutans in a broth consisting of trypticase soy and 20% sucrose added. Cells were grown overnight and then streaked to confluence on Mitis Salivarius Bacitracin (MSB) agar. In addition we took a 25 cm sterile filter paper disk and added 200 ul of either whole saliva, the saliva containing the lysine or the arginine variant of lactoferrin, allowed this saliva to dry onto the filter paper for 1 hour and then placed the filter paper containing the added protein over the center of the confluent culture of S. mutans on the MSB agar. […] This assay was used to screen for potential antimicrobial activity.
The disk diffusion assay allows for specific proteins to be added to a filter paper disk whereby the protein can then diffuse into the agar to determine antimicrobial activity. The following peptides were added to the disk; R=arginine form of Lf (FIG. 1(a)). K=lysine form of Lf (FIG. 1(a). PBS=phosphate buffered saline which is used as the control solution and to which is added either the R form or K form of Lf. In FIG. 1 below we added R form, or the K form at a concentration of 1 ug/ml to 200 ul of PBS and then added that to the surface of a 25 cm filter paper strip and allowed the strip to dry for 1 hour. We then streaked a culture of S. mutans to confluence onto a plate of trypicase soy agar containing 20% sucrose and then placed the dried disk over the center of the plate. The cultures were allowed to grow in an incubator set at 37° C. and then evaluated either at 24 or 48 hours after inoculation. […] No zone was seen on disk R/PBS or R/Saliva, where the arginine variant was substituted for the lysine variant (FIG. 3). The R and K Form of LF peptide was added at a concentration of about 15 ug/ml.

Another assay deals with oral bacteria. The conditions noted are these: bacteria grown in a broth media, in-vitro; cited from earlier work.
Another assay has as its system bacteria adhering to SHA. To be noted: SHA treated with drug, washed, placed in a culture of bacteria; cited from earlier work.
The subject of a further assay is S. mutans. The conditions noted are these: literature (Gibbons and Hay 1989; Shimotoyodeme et al 2006), cited from earlier work.

For `[H]/N=C(\N/C(=N/[H])NCCCCCCNC(=N)NC(=N)Nc1ccc(Cl)cc1)Nc1ccc(Cl)cc1` [chlorhexidine], the “bacterial plaque attachment to teeth” value with bacterial plaque was “reduce bacterial plaque attachment to teeth”.
In the case of “LF “K”: the 11 mer of lactoferrin with lysine (K) in amino acid position 29 (FQWQRNMRKVR; Active form of synthetic peptide LF11 based on human lactoferrin peptide)”, the “killing of Streptococcus mutans” value in the assay with Streptococcus mutans [1] was “kills Streptococcus mutans”. The “zone of inhibition of S. mutans growth around disk” value in the assay with Streptococcus mutans [2] (FIG. 3, peptide in PBS dried on filter paper disk, 37° C., 24 or 48 hours, listed as K) is on record as “zone of inhibition”; in the assay with Streptococcus mutans [2] (FIG. 3, peptide in PBS dried on filter paper disk, 37° C., 24 or 48 hours, listed as lysine variant of Lactoferrin) it was “clear zone”; in the assay with Streptococcus mutans [2] (peptide suspended in normal saliva, dried on filter paper disk) it was “zone of inhibition”. Also, the “antibacterial activity (zone of inhibition) against S. mutans” value in the assay on Streptococcus mutans [2] is on record as “inhibits the growth of S. mutans”.
In the case of Penicillin, the “concentration effective against oral bacteria” value in the assay with oral bacteria is 1 µg/mL. Also, the “adherence of bacteria to treated SHA” value in the assay on bacteria adhering to SHA was “no effect”.
“ST6: statherin peptide, a 6 mer (DSSEEK; ends and bridges not checked; UniProt P02808 20-25, looked up, fragment)”: the “antibacterial activity (zone of inhibition) against S. mutans” value with Streptococcus mutans [2] is on record as “do not have any antimicrobial activity”; with Streptococcus mutans [2] (listed as Statherin 6 mer), “no zone of inhibition”. The “S. mutans attachment / binding to the tooth surface” value in the assay with S. mutans was “also has this capacity”.
With “STAT-LF 6: fusion protein: lactoferrin 11 mer (LF) fused to the Statherin 6 mer (DDDEEKFQWQRNMRKVR; Synthetic fusion peptide STAT-LF6)”, the “antibacterial activity (zone of inhibition) against S. mutans” value was “most active fusion peptide” in the assay on Streptococcus mutans [2] (listed as LF and the Statherin 6 mer); “retains the activity of the Lactoferrin 11 mer” in the assay on Streptococcus mutans [2] (listed as LF fused to the Statherin 6); “retains the activity of the Lactoferrin 11 mer” in the assay on Streptococcus mutans [2] (listed as LF fused to the Statherin 6 mer).
As to “Statherin: small salivary tyrosine-rich phosphoprotein containing 43 amino acids (DSSEEKFLRRIGRFGYGYGPYQPVPEQPLYPQPYQPQYQQYTF; also: phosphoprotein, sites not given here; UniProt P02808 20-62, looked up)”, the figures for the “S. mutans attachment / binding to the tooth surface” value in the assay on S. mutans and with S. mutans (listed as statherin) were “reduce S. mutans binding to the tooth surface” and “inhibit S. mutans attachment”, respectively.
